Patent publication US20060217359A1, “Therapeutic procedures” (priority 2003, published 2006)

Legend:
[1] = Cytotoxicity assay (LDH release), Jurkat; format: cell-based; conditions: human
Protocol: (§1) Cytotoxicity assays. WI-L2 human B-lymphocyte line, HAAE-1 human abdominal aortic endothelial line, MH—S murine alveolar macrophage line, and J774A.1 murine tissue macrophage line were obtained from the ATCC. Human aortic endothelial cells (HAEC) and human vascular smooth muscle cells (VSMS) were obtained from Cambrex Bio Science. Jurkat E6-1T-lymphocytes were kindly provided by Dr. J. Kaye (The Scripps Research Institute). Cells were cultured in ATCC-recommended media with 10% fetal calf serum. Cells were incubated in a controlled atmosphere at 37° C., with 5 or 7% CO2. For lactate dehydrogenase (LDH) release assays, adherent cells were harvested either by addition of 0.05% trypsin/EDTA or by scraping. The cells obtained were seeded onto 96-well microtiter plates (25,000 cells/well) and allowed to recover for 24-48 h. […] Cytotoxicity was then determined by measuring lactate dehydrogenase (LDH) release from cells in culture. […] 100% Cytotoxicity was defined as the maximum amount of LDH released by dead cells as shown by trypan blue exclusion, or the highest amount of LDH detected upon lysis of cells by 0.9% Triton X-100. The IC50 values were determined by comparison of the raw duplicate data for concentration versus cytotoxicity (%) to non-linear regression analysis (Hill plot) using Graphpad v3.0 software for Macintosh. […]

[2] = Cytotoxicity assay (LDH release), HAEC; format: cell-based; conditions: human, 0-100 μM
Protocol: as §1

[3] = Cytotoxicity assay (LDH release), WI-L2; format: cell-based; conditions: human
Protocol: as §1

LDL / apoB-100 = LDL / apoB-100 (Homo sapiens, UniProt P04114); test: Circular dichroism of LDL secondary structure; format: biochemical; conditions: LDL 100 μg/ml, compound 10 μM, PBS pH 7.4, 37° C., up to 48 h; for random coil of LDL after incubation: native LDL 27±2%; for α helical structure of LDL after incubation (loss of secondary structure): native LDL ~40±2%
Sequence of LDL / apoB-100 (P04114 28-4563): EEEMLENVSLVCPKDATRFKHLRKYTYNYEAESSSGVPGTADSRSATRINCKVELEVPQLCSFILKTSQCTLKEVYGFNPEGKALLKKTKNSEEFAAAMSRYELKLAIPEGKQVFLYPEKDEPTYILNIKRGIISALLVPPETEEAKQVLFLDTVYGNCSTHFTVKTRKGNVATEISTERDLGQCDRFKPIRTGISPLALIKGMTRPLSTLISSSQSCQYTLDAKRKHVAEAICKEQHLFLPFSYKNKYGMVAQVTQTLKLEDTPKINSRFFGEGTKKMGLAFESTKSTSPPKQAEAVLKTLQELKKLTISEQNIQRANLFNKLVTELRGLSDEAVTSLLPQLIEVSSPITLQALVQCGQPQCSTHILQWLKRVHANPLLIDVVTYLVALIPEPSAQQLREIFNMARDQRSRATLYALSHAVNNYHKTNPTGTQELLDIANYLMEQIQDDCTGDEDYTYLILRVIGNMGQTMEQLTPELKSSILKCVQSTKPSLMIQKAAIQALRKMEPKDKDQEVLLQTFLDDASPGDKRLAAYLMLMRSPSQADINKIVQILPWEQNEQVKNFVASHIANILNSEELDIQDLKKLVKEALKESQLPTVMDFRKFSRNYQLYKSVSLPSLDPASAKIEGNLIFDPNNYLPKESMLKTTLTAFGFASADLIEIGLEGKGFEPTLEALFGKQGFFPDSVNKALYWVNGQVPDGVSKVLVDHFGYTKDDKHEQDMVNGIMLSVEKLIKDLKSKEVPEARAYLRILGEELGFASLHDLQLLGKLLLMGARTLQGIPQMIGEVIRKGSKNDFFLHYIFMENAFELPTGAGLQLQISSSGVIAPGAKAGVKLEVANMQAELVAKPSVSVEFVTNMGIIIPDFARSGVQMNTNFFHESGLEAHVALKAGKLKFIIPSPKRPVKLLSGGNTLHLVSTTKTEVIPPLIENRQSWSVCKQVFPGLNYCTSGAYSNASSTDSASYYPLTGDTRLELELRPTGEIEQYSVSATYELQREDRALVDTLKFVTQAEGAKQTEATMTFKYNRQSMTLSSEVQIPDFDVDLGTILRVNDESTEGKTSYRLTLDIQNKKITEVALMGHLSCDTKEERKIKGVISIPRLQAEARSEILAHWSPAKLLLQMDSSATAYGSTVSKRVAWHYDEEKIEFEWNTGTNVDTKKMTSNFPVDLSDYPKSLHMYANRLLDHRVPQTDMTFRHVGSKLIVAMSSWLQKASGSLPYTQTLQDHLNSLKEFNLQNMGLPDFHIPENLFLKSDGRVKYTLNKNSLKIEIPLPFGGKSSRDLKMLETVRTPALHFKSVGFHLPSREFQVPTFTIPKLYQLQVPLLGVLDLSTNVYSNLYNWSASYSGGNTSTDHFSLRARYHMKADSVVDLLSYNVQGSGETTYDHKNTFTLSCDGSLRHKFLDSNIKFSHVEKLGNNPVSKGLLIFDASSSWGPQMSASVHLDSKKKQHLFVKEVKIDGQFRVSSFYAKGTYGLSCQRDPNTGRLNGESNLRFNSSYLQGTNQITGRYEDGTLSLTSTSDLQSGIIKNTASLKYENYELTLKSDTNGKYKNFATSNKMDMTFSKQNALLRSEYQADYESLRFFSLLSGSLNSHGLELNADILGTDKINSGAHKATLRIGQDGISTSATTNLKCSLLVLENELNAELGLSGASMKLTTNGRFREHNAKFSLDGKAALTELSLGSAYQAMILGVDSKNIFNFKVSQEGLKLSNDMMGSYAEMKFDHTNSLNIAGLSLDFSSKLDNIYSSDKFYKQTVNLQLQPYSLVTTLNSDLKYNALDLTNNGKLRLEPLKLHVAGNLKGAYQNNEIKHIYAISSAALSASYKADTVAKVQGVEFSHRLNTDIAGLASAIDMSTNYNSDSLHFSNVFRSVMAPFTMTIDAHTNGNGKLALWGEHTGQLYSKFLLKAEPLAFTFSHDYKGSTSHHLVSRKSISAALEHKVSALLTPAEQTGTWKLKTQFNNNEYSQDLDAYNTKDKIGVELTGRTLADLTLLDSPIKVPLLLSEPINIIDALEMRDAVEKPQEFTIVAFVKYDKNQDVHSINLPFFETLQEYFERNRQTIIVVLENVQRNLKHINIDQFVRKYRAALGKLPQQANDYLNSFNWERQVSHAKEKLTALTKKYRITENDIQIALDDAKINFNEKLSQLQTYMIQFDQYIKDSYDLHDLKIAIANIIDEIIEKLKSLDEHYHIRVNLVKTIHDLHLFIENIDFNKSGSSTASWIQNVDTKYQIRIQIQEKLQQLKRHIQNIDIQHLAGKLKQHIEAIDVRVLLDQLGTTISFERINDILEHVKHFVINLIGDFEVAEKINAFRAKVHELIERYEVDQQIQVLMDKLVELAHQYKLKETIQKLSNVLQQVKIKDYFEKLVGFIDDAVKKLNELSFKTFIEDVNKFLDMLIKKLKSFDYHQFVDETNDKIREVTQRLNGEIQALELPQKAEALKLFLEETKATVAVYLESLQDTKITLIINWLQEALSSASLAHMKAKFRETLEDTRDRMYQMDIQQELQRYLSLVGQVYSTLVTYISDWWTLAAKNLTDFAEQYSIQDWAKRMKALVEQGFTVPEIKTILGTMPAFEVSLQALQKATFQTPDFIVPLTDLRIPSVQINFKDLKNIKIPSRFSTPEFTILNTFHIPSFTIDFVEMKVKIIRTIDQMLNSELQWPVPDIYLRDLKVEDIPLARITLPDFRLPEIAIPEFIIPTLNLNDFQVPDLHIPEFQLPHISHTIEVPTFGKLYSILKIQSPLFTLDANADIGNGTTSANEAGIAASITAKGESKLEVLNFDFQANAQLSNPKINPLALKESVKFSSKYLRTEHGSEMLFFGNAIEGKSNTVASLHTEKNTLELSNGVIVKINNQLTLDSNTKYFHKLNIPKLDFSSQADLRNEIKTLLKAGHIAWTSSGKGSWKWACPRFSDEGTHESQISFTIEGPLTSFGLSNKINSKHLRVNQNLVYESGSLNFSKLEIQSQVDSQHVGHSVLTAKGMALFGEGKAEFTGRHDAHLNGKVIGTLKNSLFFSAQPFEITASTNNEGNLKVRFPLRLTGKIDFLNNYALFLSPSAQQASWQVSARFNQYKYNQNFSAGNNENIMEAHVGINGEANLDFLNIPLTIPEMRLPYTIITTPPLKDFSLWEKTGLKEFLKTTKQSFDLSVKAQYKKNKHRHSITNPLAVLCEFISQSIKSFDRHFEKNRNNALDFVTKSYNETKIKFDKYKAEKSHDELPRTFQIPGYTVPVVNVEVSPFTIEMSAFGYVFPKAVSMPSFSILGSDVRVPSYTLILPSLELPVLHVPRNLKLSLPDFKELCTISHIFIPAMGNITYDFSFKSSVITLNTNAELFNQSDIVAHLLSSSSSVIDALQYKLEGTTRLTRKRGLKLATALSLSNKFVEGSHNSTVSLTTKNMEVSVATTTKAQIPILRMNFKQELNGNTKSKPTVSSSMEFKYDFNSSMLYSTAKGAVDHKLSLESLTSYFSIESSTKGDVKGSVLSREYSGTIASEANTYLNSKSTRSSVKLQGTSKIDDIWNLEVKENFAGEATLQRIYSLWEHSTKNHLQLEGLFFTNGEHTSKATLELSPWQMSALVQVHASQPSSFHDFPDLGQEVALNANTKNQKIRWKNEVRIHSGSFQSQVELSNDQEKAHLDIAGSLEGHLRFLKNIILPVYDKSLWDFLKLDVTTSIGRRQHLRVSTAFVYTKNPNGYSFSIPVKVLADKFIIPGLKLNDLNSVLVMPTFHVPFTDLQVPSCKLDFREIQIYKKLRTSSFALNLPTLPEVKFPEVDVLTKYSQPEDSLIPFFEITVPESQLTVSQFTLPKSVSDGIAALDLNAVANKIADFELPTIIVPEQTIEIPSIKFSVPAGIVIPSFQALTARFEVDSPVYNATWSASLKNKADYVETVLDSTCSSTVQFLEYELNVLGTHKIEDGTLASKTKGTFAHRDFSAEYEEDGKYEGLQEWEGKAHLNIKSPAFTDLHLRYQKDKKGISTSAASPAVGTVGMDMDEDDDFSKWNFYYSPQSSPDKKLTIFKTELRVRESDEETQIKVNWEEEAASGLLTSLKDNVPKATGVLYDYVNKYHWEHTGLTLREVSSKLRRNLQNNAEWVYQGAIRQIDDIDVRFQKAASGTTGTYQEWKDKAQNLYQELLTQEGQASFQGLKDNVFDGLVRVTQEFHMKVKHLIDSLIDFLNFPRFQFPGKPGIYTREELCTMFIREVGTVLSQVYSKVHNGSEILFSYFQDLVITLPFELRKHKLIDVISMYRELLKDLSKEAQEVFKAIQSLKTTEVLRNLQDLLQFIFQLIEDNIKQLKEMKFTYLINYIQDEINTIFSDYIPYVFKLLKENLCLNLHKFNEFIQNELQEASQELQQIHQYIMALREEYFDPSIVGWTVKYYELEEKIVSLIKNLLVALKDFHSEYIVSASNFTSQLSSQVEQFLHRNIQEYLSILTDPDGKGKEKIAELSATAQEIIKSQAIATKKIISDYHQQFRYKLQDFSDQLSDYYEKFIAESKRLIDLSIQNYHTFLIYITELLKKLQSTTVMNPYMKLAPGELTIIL
Protocol: Circular dichroism. […] Spectra were recorded in the peptidic range (200-260 nm). To increase the signal-to-noise ratio, multiple spectra (three) were averaged for each measurement.

[4] = Cytotoxicity assay (LDH release), VSMC; format: cell-based; conditions: human, 0-100 μM
Protocol: as §1

[5] = Decrease of extractable 5a in stored plasma; format: in vitro ADME; conditions: stored human plasma, preliminary investigations
Description: The combined organic fractions were evaporated in vacuo.

[6] = Cytotoxicity assay (LDH release), J774A.1; format: cell-based, murine; conditions: mouse, J774A.1 cells, 0-100 μM
Protocol: as §1

[7] = Cytotoxicity assay (LDH release), MH-S; format: cell-based, murine; conditions: mouse, MH-S cells, 0-100 μM
Protocol: as §1

SMILES | IC50 at 18 h [1] [µM] | IC50 at 18 h ([2]; human aortic endothelial cells (HAEC)) [µM] | IC50 at 18 h [3] [µM] | random coil of LDL after incubation (LDL / apoB-100) [%] | α helical structure of LDL after incubation (loss of secondary structure) (LDL / apoB-100) [%] | IC50 at 18 h ([4]; vascular smooth muscle cells (VSMC)) [µM] | IC50 at 18 h ([1]; Jurkat E6.1 cells, 18 h, 0-100 μM, read-out: IC50 (cytotoxicity, LDH release)) [µM] | IC50 at 18 h ([2]; HAEC cells) [µM] | IC50 at 18 h ([3]; WIL2 cells, 18 h, 0-100 μM, read-out: IC50 (cytotoxicity, LDH release)) [µM] | decrease of the amount that can be extracted from plasma [5] | IC50 at 18 h [6] [µM] | IC50 at 18 h ([4]; VSMC cells) [µM] | IC50 at 18 h [7] [µM]
CC(C)CCC[C@@H](C)[C@H]1CCC2C(CC=O)C([C@@]3(C)CC[C@H](O)CC3=O)CC[C@@]21C (stereo partly drawn) [4a, 3β-Hydroxy-5-oxo-5,6-secocholestan-6-al] | 15.5 ± 1.7 | 24.6 ± 3.2 | 10.9 ± 1.6 | ~39±2 | ~23±5 | 21.9 ± 2.2 | – | – | – | – | – | – | –
CC(C)CCC[C@@H](C)[C@H]1CCC2C3C(CC[C@@]21C)[C@@]1(C)CC[C@H](O)C[C@@]1(O)[C@@H]3C=O (stereo partly drawn) [5a, 3β-Hydroxy-5β-hydroxy-B-norcholestane-6β-carboxaldehyde] | – | – | – | 32±4 | ~20±2 | – | 12.6 ± 1.9 | 18.2 ± 1.9 | 17.7 ± 2.3 | about 5 % per day | 26.1 ± 2.8 | 29.8 ± 2.8 | 13.6 ± 1.1
